Measured values reported in US9738670B2, “Pentaaza macrocyclic ring complexes possessing oral bioavailability” (Galera Labs, LLC, priority 2015, dated 2017).

Test: Intraduodenal (id) bioavailability screen in minipigs, oil formulations, vs iv parent dichloro complex
Type: in vivo, Gottingen minipig
Conditions: for Mini-Pig BioA: id 10 mg/kg, 10% by weight formulation, AUC0->24 h vs iv 1 mg/kg parent chloro complex
Description: Compounds were screened for oral bioavailability by injecting the formulated prodrugs directly into the duodenum (intraduodenal or id administration) of the minipig test subjects, thus bypassing the acidic environment of the stomach and thereby eliminating potentially misleading oral bioavailability results that could arise from alteration of the test article drug in the acid environment of the stomach.
The studies were conducted at Xenometrics LLC (Stillwell, Kans.) and the Id bioavailability was determined using various axial ligand derivative complexes of GC4419, GC4444, GC4403 and GC4401.
*Where the iv dose is 1 mg of test article drug per kilogram body weight of the mini-pig, and the dose administered id is 10 mg of test article drug per kg body weight of the mini-pig.
Male Gottingen minipigs (4-5 mo old, 9-12 kg weight) were purchased from Marshall BioResources and housed at Xenometrics. […] The distal end was exteriorized with a reusable accessible hub (see surgical details below). During a recovery period of at least 2 weeks the minipigs were handled daily to acclimate them to the test procedures, i.e., id dosing and blood collections. For each experiment, each minipig received a test article drug dissolved or suspended in an excipient vehicle. […] All dosing experiments were conducted in fasted animals. Food was withdrawn from the minipigs 16 hours before dosing. The minipigs had ad libitum access to water. Dosed minipigs were allowed access to food 6 hour after dosing. The test article was administered at a dose of 10 mg/kg parent drug in 0.1 m L/kg vehicle (e.g., 1.5 mL in 15 kg minipig) as a bolus injection (˜1 minute) via the id cannula. The actual amount of total test article drug administered varied with the formula weight of the prodrug. An equal volume of excipient vehicle was used to flush the cannula after the test article was administered. Approximately 6 hours later, corn oil was used to flush the cannula. After approximately 24 hours post-dose, the catheter was flushed with sterile saline solution and capped. At the following time-points 0.25, 0.5, 1, 2, 4, 8, 24 and 48 hour post-injection, 2 mL blood samples were collected by cranial vena cava puncture (4 mL Sodium heparin Vacutainer, 20 g 1.5″ needle) after the skin surface was wiped with ethanol. The minipig was placed in a sling in a recumbent position without anesthesia for the collection of blood samples. The minipigs were never used more than once per 7 days for experimentation. The blood samples were kept on ice until processed for plasma. Blood samples were centrifuged at 1200×g for ten minutes at 4° C. and plasma samples were transferred to 96 well plate tubes, capped and stored at −20° C. until shipment on dry ice to the analytical laboratory used for measuring the concentration of drug in the plasma. The concentration of the parent manganese pentaaza macrocylic ring complex (independent of the composition of the axial ligands) was measured in plasma using a validated HPLC/MS/MS method that is linear between 50 ng/mL and 20,000 ng/mL.
The oils used for preparing the dosing solutions were used as supplied from commercial sources. The Capmul MCM (NF) is a mixture of mono/diglycerides of caprylic/capric acids and was supplied by ABITEC Corporation, Janesville, Wis. The Miglyol 812 N is a mixture of caprylic/capric acid triglycerides and was supplied by Cremer Oleo Division, Eatontown, N.J. Labrafil M 2125 CS (NF) is chemically defined to be linoleoyl polyoxyl-6 glycerides NF and was supplied by Gattefosse, SAINT-PRIEST Cedex, France. Peceol is chemically defined to be the monoglyceride, glyceryl monooleate NF, and was supplied by Gattefosse, SAINT-PRIEST Cedex, France. Maisine 35-1 is chemically defined to be the monoglyceride glyceryl monolinoleate (NF) and was supplied by Gattefosse, SAINT-PRIEST Cedex, France. Labrasol (NF) is chemically defined to be caprylocaproyl polyoxyl-8 glycerides NF and was supplied by Gattefosse, SAINT-PRIEST Cedex, France. […]

| Compound | Mini-Pig BioA (base oil Labrafil M2125 CS) | Mini-Pig BioA (base oil Capmul MCM) | also measured |
| --- | --- | --- | --- |
| Manganese(II)bis-propionato[(4aR,13aR,17aR,21aR)-1,2,3,4,4a,5,6,12,13,13a,14,15,16,17,17a,18,19,20,21,21a-Eicosahydro-11,7-nitrilo-7H-dibenzo[b,h][1,4,7,10] tetraazacycloheptadecine-KN5, KN13, KN18, KN21, KN22]- [GC4748] | 22% | – | – |
| Manganese(II)bis-pivaloato[(4aS,13aS,17aS,21aS)-1,2,3,4,4a,5,6,12,13,13a,14,15,16,17, 17a,18,19,20,21,21a-Eicosahydro-11,7-nitrilo-7H-dibenzo[b,h][1,4,7,10] tetraazacycloheptadecine-KN5, KN13, KN18, KN21, KN22]- [GC4709] | 22% | 17% | – |
| Manganese(II)bis-rac-Mandelato[(4aS,13aS,17aS,21aS)-1,2,3,4,4a,5,6,12,13,13a,14,15,16,17,17a,18,19,20,21,21a-Eicosahydro-11,7-nitrilo-7H-dibenzo[b,h][1,4,7,10] tetraazacycloheptadecine-KN5, KN13, KN18, KN21, KN22]- [GC4706] | – | 28% | – |
| Manganese(II)bis-L-phenylglycinato[(4aS,13aS,17aS,21aS)-1,2,3,4,4a,5,6,12,13,13a, 14,15,16,17,17a,18,19,20,21,21a-Eicosahydro-11,7-nitrilo-7H-dibenzo[b,h][1,4,7,10] tetraazacyclo-heptadecine-KN5, KN13, KN18, KN21, KN22]- [GC4702] | 25% | 43% | Mini-Pig BioA (base oil Miglyol 812N): 42%; Mini-Pig BioA (base oil Peceol): 29%; bioavailability / absorption, in words (minipig id dosing, comparison between axial ligands): much better absorbed |
| Manganese(II)bis-dodecanoato[(4aS,13aS,17aS,21aS)-1,2,3,4,4a,5,6,12,13, 13a,14,15,16,17,17a,18,19,20,21,21a-Eicosahydro-11,7-nitrilo-7H-dibenzo[b,h][1,4,7,10] tetraazacycloheptadecine-KN5, KN13, KN18, KN21, KN22]- [GC4708] | – | 12% | – |
| Manganese(II)bis-phenylacetato[(4aS,13aS,17aS,21aS)-1,2,3,4,4a,5,6,12,13,13a,14, 15,16,17,17a,18,19,20,21,21a-Eicosahydro-11,7-nitrilo-7H-dibenzo[b,h][1,4,7,10] tetraazacyclo-heptadecine-KN5, KN13, KN18, KN21, KN22]- [GC4718] | – | 32% | Mini-Pig BioA (base oil Maisine 35-1): 28% |
| Manganese(II)bis-racemic-phenylglycinato[(4aR,13aR,17aR,21aR)-1,2,3,4,4a,5,6,12,13,13a,14,15,16,17,17a,18,19,20,21,21a-Eicosahydro-11,7-nitrilo-7H-dibenzo[b,h][1,4,7,10] tetraazacycloheptadecine-KN5, KN13, KN18, KN21, KN22]- [GC4717] | – | 26% | – |
| Manganese(II)bis-n-Butyrato[(4aS,13aS,17aS,21aS)-1,2,3,4,4a,5,6,12,13,13a,14,15,16,17,17a,18,19,20,21,21a-Eicosahydro-11,7-nitrilo-7H-dibenzo[b,h][1,4,7,10] tetraazacycloheptadecine-KN5, KN13, KN18, KN21, KN22]- [GC4713] | 21% | – | Mini-Pig BioA (base oil Peceol): 18% |
| Manganese(II)bis-racemic-phenylglycinato[2S, 21S-Dimethyl(4aR,13aR,17aR,21aR)-1,2,3,4,4a,5,6,12,13,13a,14,15,16,17,17a,18,19,20,21,21a-Eicosahydro-11,7-nitrilo-7H-dibenzo[b,h][1,4,7,10] tetraazacycloheptadecine-KN5, KN13, KN18, KN21, KN22]- [GC4715] | – | 36% | – |
| Manganese(II)bis-L-Lactato[(4aS,13aS,17aS,21aS)-1,2,3,4,4a,5,6,12,13,13a,14,15,16,17,17a,18,19,20,21,21a-Eicosahydro-11,7-nitrilo-7H-dibenzo[b,h][1,4,7,10] tetraazacycloheptadecine-KN5, KN13, KN18, KN21, KN22]- [GC4714] | – | 36% | – |
| Manganese(II)bis-phenylglyoxaloto[(4aS,13aS,17aS,21aS)-1,2,3,4,4a,5,6,12,13,13a,14, 15,16,17,17a,18,19,20,21,21a-Eicosahydro-11,7-nitrilo-7H-dibenzo[b,h][1,4,7,10] tetraazacyclohepta-decine-KN5, KN13, KN18, KN21, KN22]- [GC4719] | – | 25% | Mini-Pig BioA (base oil Maisine 35-1): 31%; Mini-Pig BioA (base oil Peceol): 28% |
| Manganese(II)bis-racemic-phenylglycinato[(4aS,13aS,17aS,21aS)-1,2,3,4,4a,5,6,12,13,13a,14,15,16,17,17a,18,19,20,21,21a-Eicosahydro-11,7-nitrilo-7H-dibenzo[b,h][1,4,7,10] tetraazacycloheptadecine-KN5, KN13, KN18, KN21, KN22]- [GC4720] | – | 33% | Mini-Pig BioA (base oil Miglyol 812N): 32% |
| Manganese(II)bis-Benzoato[(4aS,13aS,17aS,21aS)-1,2,3,4,4a,5,6,12,13,13a,14,15,16,17,17a,18,19,20,21,21a-Eicosahydro-11,7-nitrilo-7H-dibenzo[b,h][1,4,7,10] tetraazacycloheptadecine-KN5, KN13, KN18, KN21, KN22]- [GC4712] | – | 24% | Mini-Pig BioA (base oil Maisine 35-1): 18%; Mini-Pig BioA (base oil Peceol): 29% |
| Manganese(II)bis-octanoato[(4aS,13aS,17aS,21aS)-1,2,3,4,4a,5,6,12,13,13a,14,15,16, 17,17a,18,19,20,21,21a-Eicosahydro-11,7-nitrilo-7H-dibenzo[b,h][1,4,7,10] tetraazacycloheptadecine-KN5, KN13, KN18, KN21, KN22]- [GC4710] | 21% | 13% | Mini-Pig BioA (base oil Maisine 35-1): 8% |
| Manganese(II)bis-cyclohexanebutyrato[(4aS,13aS,17aS,21aS)-1,2,3,4,4a,5,6,12,13,13a, 14,15,16,17,17a,18,19,20,21,21a-Eicosahydro-11,7-nitrilo-7H-dibenzo[b,h][1,4,7,10] tetraazacyclo-heptadecine-KN5, KN13, KN18, KN21, KN22]- [GC4707] | – | 9% | – |
| Manganese(II)bis-propionato[6R-Methyl(4aR,13aR,17aR,21aR)-1,2,3,4,4a,5,6,12,13,13a,14,15,16,17,17a,18,19,20,21,21a-Eicosahydro-11,7-nitrilo-7H-dibenzo[b,h][1,4,7,10] tetraazacycloheptadecine-KN5, KN13, KN18, KN21, KN22]- [GC4747] | 20% | – | – |
| Manganese(II)bis-propionato[(4aS,13aS,17aS,21aS)-1,2,3,4,4a,5,6,12,13,13a,14,15,16, 17,17a,18,19,20,21,21a-Eicosahydro-11,7-nitrilo-7H-dibenzo[b,h][1,4,7,10] tetraaza-cycloheptadecine-KN5, KN13, KN18, KN21, KN22]- [GC4711] | 44% | 27% | Mini-Pig BioA (base oil Labrafil M1944 CS): 23%; Mini-Pig BioA (base oil Maisine 35-1): 29%; Mini-Pig BioA (base oil Peceol): 29% |
| C[C@@H]1CN[C@@H]2CCCC[C@H]2NCc2cccc(n2)CN[C@@H]2CCCC[C@H]2N1.[Cl][Mn][Cl] [GC4444, reference compound] | – | 14% | – |
